Measured values reported in US8759500B2, “Crystalline forms of a macrolide, and uses therefor” (Cempra Pharmaceuticals, Inc., priority 2010, dated 2014).
In brackets after ≈: the same amount, converted by molar mass. Like-named read-outs stand apart in the source and are kept apart here.

Legend:
Dynamic vapor sorption = type: physicochemical
Method: The new physical form, Form I of CEM-101 is a crystalline form which may be described by its X-ray powder diffraction pattern. Peaks at approximate positions of about °2θ=8.8, 10.5, 13.2 and 18.6 are representative of this crystalline form. A more detailed analysis of the peaks is described in Tables 1-2 below. […] Water determination by Karl Fisher titration in typical lots is 0.6 to 1.1%. […] Form I of CEM-101 melts at about 200° C. by DSC analysis.
The new physical form, Form II of CEM-101 is a crystalline form which may be described by its X-ray powder diffraction pattern. Peaks at approximate positions of about °2θ=5.6, 7.9, 9.3, 11.7, 12.9 and 16.7 are representative of this crystalline form. A more detailed analysis of the peaks is described in Tables 3-4 below. Based on a single crystal X-ray determination and dynamic vapor sorption analysis, Form II appears to be a non-hygroscopic anhydrous crystalline form that melts at about 225° C. as a single endothermic event by DSC analysis. It is appreciated herein that non-hygroscopic solids, such as Form II described herein, may be advantageous in the preparation of pharmaceutical compositions. Such advantages include improved handling and stability properties in manufacturing, improved lot to lot quality control.

[1] = Stability of Form I and Form II under various storage conditions; type: physicochemical; details: during the entire study, all storage conditions
Description: In each case, the test material was first placed in Primary Packaging Material (LLDPE bag within a HMHDPE/LDPE/LDPE blend bag, and then heat sealed). The Primary Packaging Material was placed in Secondary Packaging Material (HDPE drum). All other impurities were less than 1% at each time point.

[2] = Balb/c, mouse, in vivo, po, 20 mg/kg
Method: (§1) The doses were prepared as 2.0 mg/mL or 10.0 mg/mL in a vehicle of 0.5% (w/v) carboxymethyl cellulose in water and a dose volume of 10 mL/kg b.w. Blood samples were collected at various time points during the next 6 h post dose.

[3] = female, Balb/c, mouse, in vivo, po
in vivo [4] = details: Balb/c, mouse, po
Method: as §1

in vivo [5] = details: female, Balb/c, mouse, po; for AUC(0-t): AUC 0-24; for half-life: t½
physchem [6] = details: pH 6.03, saline or isotonic, thermodynamic from solid
physchem [7] = details: 26 °C, thermodynamic from solid

**Q.** Which hygroscopicity (Dynamic vapor sorption) does the source give for CC[C@H]1OC(=O)[C@@](C)(F)C(=O)[C@H](C)[C@@H](O[C@@H]2O[C@H](C)C[C@H](N(C)C)[C@H]2O)[C@](C)(OC)C[C@@H](C)C(=O)[C@H](C)[C@H]2N(CCCCn3cc(-c4cccc(N)c4)nn3)C(=O)O[C@]12C [Form I, solithromycin] here?
**A.** partially hygroscopic

**Q.** What about the “change in color of the test material” value [1] of the same compound?
**A.** no observed change in color

**Q.** And the AUCextrap ([2]; female)?
**A.** 24%

**Q.** And the AUCextrap ([2]; male)?
**A.** 24%

**Q.** What about the “AUC 0-24” value ([3]; 5 mg/kg) of the same compound?
**A.** 3.30

**Q.** What about the Cmax ([3]; 5 mg/kg) of the same compound?
**A.** 1430 ng/mL

**Q.** What about the Tmax ([3]; 5 mg/kg) of the same compound?
**A.** 0.6 h

**Q.** And the t½ ([3]; 5 mg/kg)?
**A.** 1.32 h

**Q.** What about the “AUC 0-24” value ([3]; 10 mg/kg) of the same compound?
**A.** 17.7

**Q.** What about the Cmax ([3]; 10 mg/kg) of the same compound?
**A.** 4680 ng/mL

**Q.** What about the Tmax ([3]; 10 mg/kg) of the same compound?
**A.** 2.4 h

**Q.** What about the t½ ([3]; 10 mg/kg) of the same compound?
**A.** 3.6 h

**Q.** And the “AUC 0-24” value ([3]; 20 mg/kg)?
**A.** 26.2

**Q.** And the Cmax ([3]; 20 mg/kg)?
**A.** 6640 ng/mL

**Q.** What about the Tmax ([3]; 20 mg/kg) of the same compound?
**A.** 1.6 h

**Q.** And the t½ ([3]; 20 mg/kg)?
**A.** 2.1 h

**Q.** And the AUC(0-inf) (in vivo [4]; female, 20 mg/kg)?
**A.** 70000 ng·h/mL

**Q.** What about the AUC(0-t) (in vivo [4]; female, 20 mg/kg) of the same compound?
**A.** 53000 ng·h/mL

**Q.** And the Cmax (in vivo [4]; female, 20 mg/kg)?
**A.** 13600 ng/mL

**Q.** And the Tmax (in vivo [4]; female, 20 mg/kg)?
**A.** 0.5 h

**Q.** And the concentration at 0 h (in vivo [4]; female, 20 mg/kg)?
**A.** 0 ng/mL

**Q.** What about the concentration at 0.25 h (in vivo [4]; female, 20 mg/kg) of the same compound?
**A.** 8200 ± 2400 ng/mL

**Q.** And the concentration at 0.5 h (in vivo [4]; female, 20 mg/kg)?
**A.** 13600 ± 2000 ng/mL

**Q.** And the concentration at 1 h (in vivo [4]; female, 20 mg/kg)?
**A.** 12000 ± 1700 ng/mL

**Q.** And the concentration at 2 h (in vivo [4]; female, 20 mg/kg)?
**A.** 11300 ± 1400 ng/mL

**Q.** What about the concentration at 4 h (in vivo [4]; female, 20 mg/kg) of the same compound?
**A.** 7700 ± 700 ng/mL

**Q.** And the concentration at 6 h (in vivo [4]; female, 20 mg/kg)?
**A.** 4200 ± 400 ng/mL

**Q.** What about the AUC(0-t) (in vivo [4]; female, 100 mg/kg) of the same compound?
**A.** 91000 ng·h/mL

**Q.** And the Cmax (in vivo [4]; female, 100 mg/kg)?
**A.** 19500 ng/mL

**Q.** What about the Tmax (in vivo [4]; female, 100 mg/kg) of the same compound?
**A.** 6 h

**Q.** What about the concentration at 0 h (in vivo [4]; female, 100 mg/kg) of the same compound?
**A.** 0 ng/mL

**Q.** What about the concentration at 0.25 h (in vivo [4]; female, 100 mg/kg) of the same compound?
**A.** 11900 ± 1700 ng/mL

**Q.** What about the concentration at 0.5 h (in vivo [4]; female, 100 mg/kg) of the same compound?
**A.** 11600 ± 1600 ng/mL

**Q.** What about the concentration at 1 h (in vivo [4]; female, 100 mg/kg) of the same compound?
**A.** 14700 ± 2300 ng/mL

**Q.** What about the concentration at 2 h (in vivo [4]; female, 100 mg/kg) of the same compound?
**A.** 14100 ± 2900 ng/mL

**Q.** What about the concentration at 4 h (in vivo [4]; female, 100 mg/kg) of the same compound?
**A.** 16000 ± 2300 ng/mL

**Q.** What about the concentration at 6 h (in vivo [4]; female, 100 mg/kg) of the same compound?
**A.** 19500 ± 2300 ng/mL

**Q.** What about the AUC(0-inf) (in vivo [4]; male, 20 mg/kg) of the same compound?
**A.** 46000 ng·h/mL

**Q.** And the AUC(0-t) (in vivo [4]; male, 20 mg/kg)?
**A.** 35000 ng·h/mL

**Q.** And the Cmax (in vivo [4]; male, 20 mg/kg)?
**A.** 9500 ng/mL

**Q.** And the Tmax (in vivo [4]; male, 20 mg/kg)?
**A.** 1 h

**Q.** And the concentration at 0 h (in vivo [4]; male, 20 mg/kg)?
**A.** 0 ng/mL

**Q.** And the concentration at 0.25 h (in vivo [4]; male, 20 mg/kg)?
**A.** 5300 ± 1800 ng/mL

**Q.** What about the concentration at 0.5 h (in vivo [4]; male, 20 mg/kg) of the same compound?
**A.** 7700 ± 1600 ng/mL

**Q.** And the concentration at 1 h (in vivo [4]; male, 20 mg/kg)?
**A.** 9500 ± 900 ng/mL

**Q.** And the concentration at 2 h (in vivo [4]; male, 20 mg/kg)?
**A.** 6400 ± 800 ng/mL

**Q.** What about the concentration at 4 h (in vivo [4]; male, 20 mg/kg) of the same compound?
**A.** 5900 ± 600 ng/mL

**Q.** What about the concentration at 6 h (in vivo [4]; male, 20 mg/kg) of the same compound?
**A.** 2600 ± 800 ng/mL

**Q.** What about the AUC(0-t) (in vivo [4]; male, 100 mg/kg) of the same compound?
**A.** 83500 ng·h/mL

**Q.** And the Cmax (in vivo [4]; male, 100 mg/kg)?
**A.** 17400 ng/mL

**Q.** What about the Tmax (in vivo [4]; male, 100 mg/kg) of the same compound?
**A.** 4 h

**Q.** And the concentration at 0 h (in vivo [4]; male, 100 mg/kg)?
**A.** 0 ng/mL

**Q.** And the concentration at 0.25 h (in vivo [4]; male, 100 mg/kg)?
**A.** 11300 ± 2500 ng/mL

**Q.** And the concentration at 0.5 h (in vivo [4]; male, 100 mg/kg)?
**A.** 10700 ± 3000 ng/mL

**Q.** What about the concentration at 1 h (in vivo [4]; male, 100 mg/kg) of the same compound?
**A.** 13100 ± 3200 ng/mL

**Q.** And the concentration at 2 h (in vivo [4]; male, 100 mg/kg)?
**A.** 13400 ± 3100 ng/mL

**Q.** What about the concentration at 4 h (in vivo [4]; male, 100 mg/kg) of the same compound?
**A.** 17400 ± 2900 ng/mL

**Q.** What about the concentration at 6 h (in vivo [4]; male, 100 mg/kg) of the same compound?
**A.** 12000 ± 2000 ng/mL

**Q.** And the AUC(0-t) (in vivo [5]; 5 mg/kg)?
**A.** 3160 ng·h/mL

**Q.** And the Cmax (in vivo [5]; 5 mg/kg)?
**A.** 1540 ng/mL

**Q.** And the Tmax (in vivo [5]; 5 mg/kg)?
**A.** 0.5 h

**Q.** And the half-life (in vivo [5]; 5 mg/kg)?
**A.** 1.32 h

**Q.** And the AUC(0-t) (in vivo [5]; 10 mg/kg)?
**A.** 17200 ng·h/mL

**Q.** And the Cmax (in vivo [5]; 10 mg/kg)?
**A.** 4090 ng/mL

**Q.** And the Tmax (in vivo [5]; 10 mg/kg)?
**A.** 2 h

**Q.** What about the half-life (in vivo [5]; 10 mg/kg) of the same compound?
**A.** 2.95 h

**Q.** What about the AUC(0-t) (in vivo [5]; 20 mg/kg) of the same compound?
**A.** 26700 ng·h/mL

**Q.** What about the Cmax (in vivo [5]; 20 mg/kg) of the same compound?
**A.** 5910 ng/mL

**Q.** And the Tmax (in vivo [5]; 20 mg/kg)?
**A.** 2 h

**Q.** And the half-life (in vivo [5]; 20 mg/kg)?
**A.** 1.91 h

**Q.** And the solubility at 6 h (physchem [6])?
**A.** 1410 µg/mL (≈ 1670 µM)

**Q.** What about the solubility at 6 h (physchem [7]; pH 1.2, simulated gastric fluid) of the same compound?
**A.** 4810 µg/mL (≈ 5690 µM)

**Q.** And the solubility at 6 h (physchem [7]; pH 4, aqueous buffer)?
**A.** 4660 µg/mL (≈ 5510 µM)

**Q.** What about the solubility at 6 h (physchem [7]; pH 7.4, aqueous buffer) of the same compound?
**A.** 2220 µg/mL (≈ 2630 µM)

**Q.** And the solubility at 6 h (physchem [7]; pH 9.2, aqueous buffer)?
**A.** 1750 µg/mL (≈ 2070 µM)
